Read-outs that look alike come from different tables or passages of the source.
Tests used:
A549 = experiment: CCK-8 cell viability assay and IC50 measurement; assay type: cell-based, human; details: for viability at 40 µM / IC50 / inhibition at 40 µM: Homo sapiens; for viability at 40 µM / inhibition at 40 µM: A549, 40 μM, 48 h; for viability at 40 µM: CCK-8, read-out: Cell viability (100%), 40 μM, 48 h, A549; for inhibition at 40 µM: read-out: inhibition rate
Experimental: (§1) In order to investigate the anticancer activity of new synthetic 1,4-benzoxazinone-linked 1,2,3-triazole compounds, we chose several cancer cell lines, including A549 (lung), Huh7 (liver), MCF-7 (breast), HCT-116 (colon), and SKOV3 (ovary), and measured cell viability using the CCK-8 assay. Cells were exposed to 40 μM of the compounds for 48 h, and then cell viability was determined. […] In addition, we used the reference drug gefitinib as a positive control and measured its cell viability on different cell lines. […] We used BEAS-2B cells as a normal cell line to determine the toxic effects of these compounds on normal cells. […] Furthermore, we evaluated the IC50 of these compounds in A549.
(§2) Human cancer cell lines A549, Huh7, MCF-7, HCT-116, and SKOV3 were obtained from ATCC. The cells were cultured in DMEM or RPMI 1640 medium supplemented with 10% FBS and 1% penicillin/streptomycin and incubated at 37°C in a CO2-humidified atmosphere.
(§3) Cells were cultured in DMEM or RPMI 1640 medium containing 10% FBS and 1% penicillin/streptomycin at 37°C and 5% CO2. The CCK-8 assay was performed on several human cancer cell lines, including A549, Huh7, MCF-7, HCT-116, and SKOV3, according to the manufacturer’s instructions. Cells were plated at a density of 5 × 10^3 cells per well in a 96-well plate. After 24 h of incubation, cells were treated with 40 μM compounds for 48 h. Cell viability was assessed by adding 10 μL of CCK-8 reagent, dissolved in the cell culture medium, and incubating for 1 h. Absorbance was measured at 450 nm using a microplate reader. IC50 values were determined using a dose-response curve with six concentrations (0, 10, 20, 40, 80, and 160 μM), and IC50 values were calculated using GraphPad Prism software.

HCT-116 = experiment: CCK-8 cell viability assay; assay type: cell-based; details: Homo sapiens, HCT-116, 40 μM, 48 h, read-out: Cell viability (100%), 40 μM, 48 h, HCT-116
Experimental: as §1, §2, §3

Huh7 = experiment: CCK-8 cell viability assay; assay type: cell-based; details: Homo sapiens, Huh-7, Huh7, 40 μM, 48 h, read-out: Cell viability (100%), 40 μM, 48 h, Huh7
Experimental: as §1, §2, §3

MCF-7 = experiment: CCK-8 cell viability assay; assay type: cell-based; details: Homo sapiens, MCF7, MCF-7, 40 μM, 48 h, read-out: Cell viability (100%), 40 μM, 48 h, MCF-7
Experimental: as §1, §2, §3

SKOV3 = experiment: CCK-8 cell viability assay; assay type: cell-based; details: Homo sapiens, SK-OV-3, SKOV3, 40 μM, 48 h, read-out: Cell viability (100%), 40 μM, 48 h, SKOV3
Experimental: as §1, §2, §3

[1] = CCK-8 cell viability assay, normal cell line; assay type: cell-based; details: human, BEAS-2B cells (normal cell line), BEAS-2B normal cell line, read-out: Cell viability (100%), 40 μM, 48 h, BEAS-2B
Experimental: as §1, §3

[2] = A549, 48 h, read-out: IC50 48 h
[3] = A549, 72 h, read-out: IC50 72 h

Compound | viability at 40 µM (A549) [%] | viability at 40 µM (HCT-116) [%] | viability at 40 µM (Huh7) [%] | viability at 40 µM (MCF-7) [%] | viability at 40 µM (SKOV3) [%] | viability at 48 h, 40 µM [1] [%] | IC50 (A549; [2]) [µM] | IC50 (A549; [3]) [µM] | inhibition at 40 µM (A549) [%] | activity on A549 cells (in words) (A549; A549, CCK-8)
N#Cc1ccccc1Cn1cc(-c2cccc(C(=O)Nc3ccc4c(c3)NC(=O)CO4)c2)nn1 [Compound 13o] | 64 ± 6.89 | 97.9 ± 1.02 | 104 ± 2.7 | 103 ± 2.66 | 98.4 ± 2.58 | 109 ± 1.51 |  |  |  | 
O=C1COc2ccc(NC(=O)c3cccc(-c4cn(Cc5c(Cl)cccc5Cl)nn4)c3)cc2N1 [Compound 13n] | 55.6 ± 1.02 | 83.1 ± 1.96 | 129.4 ± 0.81 | 122 ± 3.23 | 89.3 ± 1.41 | 104.7 ± 0.69 | 88.6 ± 18 | 77 ± 6.21 |  | 
O=C1COc2ccc(NC(=O)c3cccc(-c4cn(-c5cc(Cl)ccc5F)nn4)c3)cc2N1 [Compound 14g] | 28.2 ± 0.55 | 74.8 ± 1.72 | 75.3 ± 1.09 | 45.5 ± 0.99 | 87.6 ± 1.3 | 103 ± 4.98 |  |  | > 50 | 
O=C1COc2ccc(NC(=O)c3cccc(-c4cn(Cc5ccccc5F)nn4)c3)cc2N1 [Compound 13j] | 53.6 ± 2.43 | 60.3 ± 1.3 | 97.2 ± 2.59 | 107 ± 2.73 | 92.73 ± 0.81 | 125.8 ± 0.46 | 43.5 ± 5.67 | 35.3 ± 5.81 |  | 
O=C1COc2ccc(NC(=O)c3cccc(-c4cn(Cc5ccccc5Br)nn4)c3)cc2N1 [Compound 13q] | 29.3 ± 1.12 | 77.1 ± 2.31 | 123 ± 1.89 | 97.9 ± 2.13 | 89.5 ± 3.23 | 114.9 ± 0.85 | 29.4 ± 3.49 | 34.9 ± 5.25 | > 50 | 
O=C1COc2ccc(NC(=O)c3cccc(-c4cn(Cc5ccc(F)cc5)nn4)c3)cc2N1 [Compound 13i] | 130 ± 1.04 | 142.6 ± 0.97 | 120 ± 2.62 | 124.6 ± 0.87 | 124.2 ± 1.08 | 117 ± 2.34 |  |  |  | 
O=C1COc2ccc(NC(=O)c3cccc(-c4cn(Cc5ccc(C(F)(F)F)cc5)nn4)c3)cc2N1 [Compound 13p] | 94.7 ± 6.71 | 120 ± 2.54 | 119 ± 1.7 | 113 ± 1.67 | 104 ± 1.06 | 102 ± 4.05 |  |  |  | 
O=C1COc2ccc(NC(=O)c3cccc(-c4cn(Cc5cc(Br)cc(Br)c5)nn4)c3)cc2N1 [Compound 13k] | 140.65 ± 0.11 | 152 ± 3.5 | 129 ± 2 | 141 ± 1.94 | 135 ± 2.4 | 112 ± 1.63 |  |  |  | 
O=C1COc2ccc(NC(=O)c3cccc(-c4cn(Cc5ccc(F)cc5Cl)nn4)c3)cc2N1 [Compound 13t] | 96.6 ± 2.07 | 114 ± 1.76 | 101 ± 3.53 | 97.9 ± 2.53 | 97.2 ± 1.54 | 103 ± 2.67 |  |  |  | 
O=C1COc2ccc(NC(=O)c3cccc(-c4cn(-c5ccc(Br)cc5F)nn4)c3)cc2N1 [Compound 14f] | 39.6 ± 1.77 | 80.62 ± 0.6 | 71.4 ± 1.66 | 74.2 ± 1.07 | 79.8 ± 2.53 | 90.98 ± 0.38 |  |  | > 50 | 
O=C1COc2ccc(NC(=O)c3cccc(-c4cn(-c5cccc(Cl)c5)nn4)c3)cc2N1 [Compound 14d] | 29.01 ± 0.13 | 134 ± 3.97 | 141.3 ± 1.17 | 120 ± 2.54 | 90.5 ± 3.81 | 118 ± 2.43 | 38.7 ± 14.9 | 34.8 ± 1.96 | > 50 | 
O=C1COc2ccc(NC(=O)c3cccc(-c4cn(Cc5ccc(Br)cc5)nn4)c3)cc2N1 [Compound 13a] | 105 ± 3.6 | 115 ± 4.01 | 109 ± 2.48 | 107 ± 3.39 | 104 ± 2.08 | 110 ± 1.16 |  |  |  | 
O=C1COc2ccc(NC(=O)c3cccc(-c4cn(Cc5cc(Cl)ccc5F)nn4)c3)cc2N1 [Compound 13h] | 44.1 ± 2.78 | 80.4 ± 3 | 105 ± 2.37 | 94.2 ± 2.87 | 89.7 ± 5.2 | 125 ± 1.84 | 51.1 ± 2.54 | 49 ± 4.27 | > 50 | 
O=C1COc2ccc(NC(=O)c3cccc(-c4cn(-c5ccccc5Cl)nn4)c3)cc2N1 [Compound 14e] | 46.5 ± 2.68 | 118 ± 5.23 | 134.1 ± 0.79 | 127 ± 1.89 | 86.5 ± 4.84 | 97.5 ± 2.69 | 29.1 ± 1.15 | 27.8 ± 0.96 | > 50 | 
N#Cc1ccc(F)cc1Cn1cc(-c2cccc(C(=O)Nc3ccc4c(c3)NC(=O)CO4)c2)nn1 [Compound 13d] | 133 ± 1.67 | 135 ± 3.97 | 126 ± 1.71 | 137 ± 1.49 | 120 ± 1.47 | 96.6 ± 2.6 |  |  |  | 
O=C1COc2ccc(NC(=O)c3cccc(-c4cn(Cc5ccc(I)cc5)nn4)c3)cc2N1 [Compound 13s] | 128.8 ± 1.19 | 150.6 ± 1.11 | 137 ± 1.61 | 127 ± 3.34 | 118 ± 1.64 | 94.7 ± 1.56 |  |  |  | 
O=C1COc2ccc(NC(=O)c3cccc(-c4cn(Cc5cccc(Cl)c5)nn4)c3)cc2N1 [Compound 13g] | 99.5 ± 3 | 89.8 ± 1.75 | 104 ± 3.8 | 104.5 ± 0.28 | 109 ± 2.06 | 103.1 ± 0.72 |  |  |  | 
O=C1COc2ccc(NC(=O)c3cccc(-c4cn(Cc5cccc(F)c5)nn4)c3)cc2N1 [Compound 13r] | 70 ± 2.73 | 74.9 ± 3.73 | 131 ± 2.34 | 122 ± 2.48 | 115.2 ± 0.67 | 96.3 ± 1.01 |  |  |  | 
Cc1cc(C)cc(Cn2cc(-c3cccc(C(=O)Nc4ccc5c(c4)NC(=O)CO5)c3)nn2)c1 [Compound 13b] | 114.5 ± 1.06 | 124 ± 4.48 | 108 ± 1.9 | 112 ± 2.33 | 115 ± 2.08 | 105.7 ± 0.38 |  |  |  | 
O=C1COc2ccc(NC(=O)c3cccc(-c4cn(Cc5cccc(C(F)(F)F)c5)nn4)c3)cc2N1 [Compound 13m] | 126 ± 1.9 | 144 ± 2.31 | 124 ± 3.41 | 127 ± 1.71 | 126 ± 2.44 | 107.9 ± 0.77 |  |  |  | 
O=C1COc2ccc(NC(=O)c3cccc(-c4cn(-c5ccc(C(F)(F)F)cc5)nn4)c3)cc2N1 [Compound 14a] | 88.4 ± 7.15 | 110 ± 5.19 | 114 ± 1.46 | 101 ± 3.09 | 103 ± 2.87 | 111.6 ± 0.81 |  |  |  | 
COc1cc2ncnc(Nc3ccc(F)c(Cl)c3)c2cc1OCCCN1CCOCC1 [Gefitinib, reference compound] | 31.1 ± 0.73 | 75.2 ± 1.66 | 55 ± 0.76 | 63.73 ± 0.62 | 84.25 ± 0.32 | 82.11 ± 0.74 |  |  |  | effective activity on A549 cells
O=C1COc2ccc(NC(=O)c3cccc(-c4cn(Cc5ccc(Br)cc5F)nn4)c3)cc2N1 [Compound 13l] | 57 ± 2.02 | 110 ± 5.15 | 119 ± 2.06 | 105 ± 2.42 | 91.6 ± 2.21 | 101.5 ± 0.49 | > 100 | 79.2 ± 6.11 |  | 
O=C1COc2ccc(NC(=O)c3cccc(-c4cn(Cc5c(F)cccc5Cl)nn4)c3)cc2N1 [Compound 13e] | 45.95 ± 0.35 | 60.9 ± 1.95 | 126 ± 1.82 | 120 ± 3.06 | 85.8 ± 4.65 | 108 ± 1.19 | > 100 | 64.7 ± 7.35 | > 50 | 
